Experimental data as given in article PMC11822723 (ACS Omega, 2025).
≈ marks a conversion by molar mass, not a printed value. Like-named read-outs stand apart in the source and are kept apart here.

Columns and labels:
[1] = Aqueous solubility measurements (stepwise solvent addition, stereo microscope); type: physicochemical; details: for solubility: thermodynamic from solid, read-out: solubility, conc.
Description: Thus, the impact of the pH value on the solubilities of the Ox-Ibu-PIP-X-Mal complexes was investigated. Commercially available 0.9% NaCl has a pH of roughly 5, but when acidified to pH 3, the solubilities of both Ox-Ibu-PIP-X-Mal complexes increased by a factor of 1.5. […] Expectedly, using phosphate buffer or phosphate-buffered saline (PBS) at pH 7.4 further decreased the solubility.
5% glucose and 0.9% NaCl solutions were purchased from B. Braun. 0.9% NaCl solutions were acidified to pH 3.0 using 1 M HCl and basified to pH 7.0 using 1 M NaOH. Aqueous buffers (citrate, PB, PBS) were prepared in 100 mM concentrations. One mg of compound was weighted using a Sartorius ME215P analytical balance and the solubility was investigated according to the following stepwise interval: +1 μL in the volume range 0–10 μL; +10 μL in the volume range 10–100 μL; +100 μL in the volume range 100–1000 μL; +1000 μL in the volume range 1000–5000 μL. Dissolution of the sample was investigated using a Leica M80 routine stereo microscope (50× magnification) until no solid particles were observed.

[2] = Hydrolytic stability of the maleimide in phosphate buffer, UHPLC; type: physicochemical; details: 1 mM, 150 mM phosphate buffer pH 7.4, 20 °C
Method: It is known from literature that most maleimides are prone to hydrolysis at physiological pH.[38] Consequently, the hydrolytic stabilities of the three oxaliplatin(IV)-acetato complexes bearing the piperazine maleimides were studied in comparison to the reference complex Ox-OAc-PEG4-Mal. The hydrolysis of the platinum(IV)-acetato complexes was investigated in phosphate buffer at pH 7.4 and 20 °C over 5 h and the amount of remaining intact parental complex was monitored with ultrahigh-performance liquid chromatography (UHPLC) (Figure 1). Ox-OAc-PIP-C2-Mal hydrolyzed rapidly, with only traces of intact platinum(IV)-maleimide remaining after 1 h incubation time. […] These dramatic differences are in line with some model maleimide compounds reported in literature, also containing piperazine moieties.[38] The strong inductive effects of the protonated quaternary nitrogen of the piperazine can explain the extremely fast hydrolysis of Ox-OAc-PIP-C2-Mal.
Phosphate buffer (150 mM, pH 7.4) containing 1 mM platinum compound was incubated at 20 °C. The reaction was monitored on a Thermo Scientific Dionex UltiMate 3000 UHPLC-system using a Waters Acquity UPLC BEH C18 1.7 μm 3.0 mm × 50 mm column. Milli-Q water, containing 0.1% formic acid, and acetonitrile containing 0.1% formic acid were used as eluents. A gradient of 5–95% over 5 min was used. […]

albumin = target: T1, albumin (Bos taurus, UniProt P02769); test: Albumin binding in phosphate-buffered fetal calf serum, 195Pt traces by SEC-ICP-MS; type: in vitro ADME; details: for bound to albumin after 1 h of incubation / bound to albumin at time point 0: 100 μM in FCS (150 mM phosphate buffer, pH 7.4), 37 °C
T1 construct: Serum proteins (including albumin) have a retention time of 2–4 min, with the albumin fraction eluting at 4.0 min; tissue Sigma-Aldrich; host or cells: fetal calf serum (whole serum, buffered with 150 mM phosphate pH 7.4)
T1 sequence (P02769 25-607): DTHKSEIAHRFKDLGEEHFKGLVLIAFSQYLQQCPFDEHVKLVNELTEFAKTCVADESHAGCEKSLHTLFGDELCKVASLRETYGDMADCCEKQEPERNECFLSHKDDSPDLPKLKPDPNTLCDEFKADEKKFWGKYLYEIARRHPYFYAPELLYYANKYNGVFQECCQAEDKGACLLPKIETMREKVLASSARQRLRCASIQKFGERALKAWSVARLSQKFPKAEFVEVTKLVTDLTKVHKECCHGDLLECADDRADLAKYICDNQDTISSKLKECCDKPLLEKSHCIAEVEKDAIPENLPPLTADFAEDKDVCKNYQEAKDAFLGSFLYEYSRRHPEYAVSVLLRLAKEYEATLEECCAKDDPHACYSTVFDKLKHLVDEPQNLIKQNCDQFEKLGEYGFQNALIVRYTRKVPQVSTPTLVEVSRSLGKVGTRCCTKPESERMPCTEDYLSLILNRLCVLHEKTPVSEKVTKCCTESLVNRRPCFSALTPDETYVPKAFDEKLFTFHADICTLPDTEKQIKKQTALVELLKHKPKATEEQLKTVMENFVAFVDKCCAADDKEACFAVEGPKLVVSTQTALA
Method: Subsequently, it was of interest how the observed divergent maleimide hydrolysis rates impact the albumin binding kinetics. Therefore, the different platinum(IV) complexes were incubated in phosphate-buffered fetal calf serum (FCS) at 37 °C over 25 h and ^195Pt traces were measured via size-exclusion chromatographyinductively coupled plasma mass spectrometry (SEC-ICP-MS). Serum proteins (including albumin) have a retention time of 2–4 min, with the albumin fraction eluting at 4.0 min (Figure S1) as part of the high-molecular weight fraction (HMWF) and unbound platinum(IV) complexes elute in the low-molecular weight fraction (LMWF) with retention times usually >5 min. Already at time point 0, ∼60% of Ox-OAc-PEG4-Mal (tR = 6.4 min) was bound to albumin at 4.0 min in the HMWF, which increased to ∼90% after 1 h of incubation (Figure 2A). The remaining 10% of the parental complex (at tR > 5 min) most likely either contained a hydrolyzed maleimide moiety, unable to bind albumin, or were conjugated to low-molecular weight sulfur-containing compounds. The formed platinum(IV)-albumin conjugate remained stable for more than 25 h. […] In the LMWF, only a small peak of still intact Ox-OAc-PIP-C2-Mal (tR 6.5 min) could be observed, while a major signal (∼35%) of most likely already hydrolyzed maleimide compound appeared at tR 5.8 min. This is in very good agreement with the very fast hydrolysis of the maleimide moiety shown above (see Figure 1).
FCS was purchased from Sigma-Aldrich and buffered with 150 mM phosphate pH 7.4 in order to guarantee a stable pH. The platinum(IV) complexes (5 mM) were dissolved in 150 mM phosphate buffer (pH 7.4) and diluted […] in the buffered serum to obtain a final concentration of 100 μM. The samples were incubated in the autosampler at 37 °C and analyzed at 0, 1, 4, 24, and 25 h time points. Between each sample a pure water blank was measured. For SEC-ICP-MS measurements an Agilent 1260 Infinity system coupled to an Agilent 7800 ICP-MS equipped with a dynamic reaction cell was used. Oxygen (purity 5.5, Messer Austria GmbH, Gumpoldskirchen, Austria) was used as reaction gas.

[3] = 0.9% NaCl solution, pH 5, saline or isotonic, 0.9% NaCl
[4] = 5% glucose solution, saline or isotonic, 5% glucose

solubility [1, 3] [mM]	solubility [1, 4] [mM]	SMILES	bound to albumin after 1 h of incubation (albumin) [%]	bound to albumin at time point 0 (albumin) [%]	further results
1500 (≈ 1030 mg/mL)	700 (≈ 481 mg/mL)	CC(C)[C@H](NC(=O)CCN1CCN(CCOCCN2C(=O)C=CC2=O)CC1)C(=O)N[C@@H](CCCNC(N)=O)C(=O)Nc1ccc(CO)cc1 [Mal-O-PIP-ValCitPAB-OH, (S)-2-((S)-2-(3-(4-(2-(2-(2,5-Dioxo-2,5-dihydro-1H-pyrrol-1-yl)ethoxy)ethyl)piperazin-1-yl)propanamido)-3-methylbutanamido)-N-(4-(hydroxymethyl)phenyl)-5-ureidopentanamide]	–	–	–
–	–	CC(=O)[O][Pt]12([O]C(=O)NCCOCCOCCOCCOCCN3C(=O)C=CC3=O)([NH][C@@H]3CCCC[C@H]3[NH]1)[O]C(=O)C(=O)[O]2 [Ox-OAc-PEG4-Mal, (OC-6–34)-Acetato-[(1R,2R)-1,2-cyclohexanediamino][(14-(2,5-dioxo-2,5-dihydro-1H-pyrrol-1-yl)-3,6,9,12-tetraoxatetradecyl)carbamato]oxalatoplatinum(IV)]	~90	~60	intact maleimide / intact complex remaining after 5 h incubation [2]: ~70%; time the formed platinum(IV)-albumin conjugate remained stable (albumin; FCS, pH 7.4, 37 °C): over 25 h; remaining parental complex not bound to albumin (tR > 5 min) (albumin; FCS, pH 7.4, 37 °C, after 1 h): 10%
1400 (≈ 1010 mg/mL)	600 (≈ 431 mg/mL)	CC(C)[C@H](NC(=S)NCCN1CCN(CCOCCN2C(=O)C=CC2=O)CC1)C(=O)N[C@@H](CCCNC(N)=O)C(=O)Nc1ccc(CO)cc1 [Mal-O-PIP-ThioU-ValCitPAB-OH, (S)-2-((S)-2-(3-(2-(4-(2-(2-(2,5-Dioxo-2,5-dihydro-1H-pyrrol-1-yl)ethoxy)ethyl)piperazin-1-yl)ethyl)thioureido)-3-methylbutanamido)-N-(4-(hydroxymethyl)phenyl)-5-ureidopentanamide]	–	–	–
–	–	CC(=O)[O][Pt]12([O]C(=O)NCCN3CCN(CCCCCN4C(=O)C=CC4=O)CC3)([NH][C@@H]3CCCC[C@H]3[NH]1)[O]C(=O)C(=O)[O]2 [Ox-OAc-PIP-C5-Mal, (OC-6–34)-Acetato-[(1R,2R)-1,2-cyclohexanediamino][(2-(4-(5-(2,5-dioxo-2,5-dihydro-1H-pyrrol-1-yl)pentyl)piperazin-1-yl)ethyl)carbamato]oxalatoplatinum(IV)]	~95	69	–
–	–	CC(=O)[O][Pt]12([O]C(=O)NCCN3CCN(CCOCCN4C(=O)C=CC4=O)CC3)([NH][C@@H]3CCCC[C@H]3[NH]1)[O]C(=O)C(=O)[O]2 [Ox-OAc-PIP-O-Mal, (OC-6–34)-Acetato-[(1R,2R)-1,2-cyclohexanediamino][(2-(4-(2-(2-(2,5-dioxo-2,5-dihydro-1H-pyrrol-1-yl)ethoxy)ethyl)piperazin-1-yl)ethyl)carbamato]oxalatoplatinum(IV)]	~95	75	–
1300 (≈ 985 mg/mL)	600 (≈ 455 mg/mL)	CC(C)[C@H](NC(=O)CCC(=O)NCCN1CCN(CCOCCN2C(=O)C=CC2=O)CC1)C(=O)N[C@@H](CCCNC(N)=O)C(=O)Nc1ccc(CO)cc1 [Mal-O-PIP-Succ-ValCitPAB-OH, N1-(2-(4-(2-(2-(2,5-Dioxo-2,5-dihydro-1H-pyrrol-1-yl)ethoxy)ethyl)piperazin-1-yl)ethyl)-N4-((S)-1-(((S)-1-((4-(hydroxymethyl)phenyl)amino)-1-oxo-5-ureidopentan-2-yl)amino)-3-methyl-1-oxobutan-2-yl)succinamide]	–	–	–
–	–	CC(=O)[O][Pt]12([O]C(=O)NCCN3CCN(CCN4C(=O)C=CC4=O)CC3)([NH][C@@H]3CCCC[C@H]3[NH]1)[O]C(=O)C(=O)[O]2 [Ox-OAc-PIP-C2-Mal, (OC-6–34)-Acetato-[(1R,2R)-1,2-cyclohexanediamino][(2-(4-(2-(2,5-dioxo-2,5-dihydro-1H-pyrrol-1-yl)ethyl)piperazin-1-yl)ethyl)carbamato]oxalatoplatinum(IV)]	–	~60	signal of most likely already hydrolyzed maleimide compound in LMWF (tR 5.8 min) (albumin; FCS, pH 7.4, 37 °C): ~35%; course of albumin binding over time (albumin; FCS, pH 7.4, 37 °C, over 25 h): did not further increase over time
40 (≈ 28.3 mg/mL)	20 (≈ 14.1 mg/mL)	CC(C)C(NC(=O)CCOCCOCCOCCOCCN1C(=O)C=CC1=O)C(=O)NC(CCCNC(N)=O)C(=O)Nc1ccc(CO)cc1 (stereo not shown) [Mal-PEG4-ValCitPAB-OH, reference compound]	–	–	solubility, conc. ([1]; 0.9% NaCl): 35 mM (≈ 24.7 mg/mL); solubility, conc. ([1]; 5% glucose): 24 mM (≈ 17 mg/mL)
